The record followed here is PubChem BioAssay (NCI).

Test systems include NCI-H460 lung; HCT-116 colon; EKVX NSCLC; MCF7 breast; SK-MEL-5 melanoma; NCI/ADR-RES ovarian; RXF 393 renal; SK-OV-3 ovarian; UACC-62 melanoma; HT29 colon.
Experiment in all cases: DTP human tumour cell line panel, 48 h

Several values for one entry are separate records, joined by “and”; a condition that tells them apart may be missing. Identical values can stand only once.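 Exposure lasted 48 hours, with cells grown in 96-well plates and compounds tested at five concentrations. Abbreviation: GI50, concentration required for 50% inhibition of growth. TGI: total growth inhibition.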

With `CC(=O)Nc1ccc2c(c1)C(=O)c1cccc(F)c1-2`, the total growth inhibition concentration (TGI) is greater than 100 µM in the assay on NCI-H460 lung; greater than 81.7 µM in the assay on HCT-116 colon; greater than 100 µM with EKVX NSCLC; greater than 63.9 µM in the assay with MCF7 breast; greater than 100 µM with SK-MEL-5 melanoma; greater than 100 µM in the assay on NCI/ADR-RES ovarian. Moreover, the TGI in the assay on RXF 393 renal is greater than 91.2 µM; in the assay with SK-OV-3 ovarian, greater than 100 µM; with UACC-62 melanoma it was greater than 100 µM; in the assay on HT29 colon, greater than 100 µM.

For the compound `CC(C)=CCc1ccc(O)c(=O)cc1C(C)C`, the GI50 with NCI-H460 lung was 0.42 µM; with HCT-116 colon it was 0.469 µM; with EKVX NSCLC it was 0.831 µM; with MCF7 breast, 0.501 µM; in the assay with SK-MEL-5 melanoma, 0.582 µM; with NCI/ADR-RES ovarian, 0.336 µM. The GI50 with RXF 393 renal is 1.55 µM; in the assay on SK-OV-3 ovarian, 0.903 µM; with UACC-62 melanoma, 0.493 µM; in the assay on HT29 colon, 1.51 µM. In addition, the concentration for total growth inhibition (TGI) in the assay on NCI-H460 lung is greater than 33.1 µM; in the assay on HCT-116 colon, greater than 100 µM; in the assay on EKVX NSCLC it was greater than 100 µM; in the assay with MCF7 breast it was greater than 100 µM; in the assay with SK-MEL-5 melanoma, 4.08 µM; in the assay on NCI/ADR-RES ovarian, 2.74 µM. Also, the concentration for total growth inhibition (TGI) is 17.4 µM with RXF 393 renal, greater than 100 µM with SK-OV-3 ovarian, 4.38 µM with UACC-62 melanoma and greater than 100 µM in the assay with HT29 colon.

For the compound `COc1ccc2cc3[n+](cc2c1OC)CCc1cc2c(cc1-3)OCO2`, the GI50 in the assay on NCI-H460 lung is 6.22 µM; in the assay with SK-MEL-5 melanoma it was 1.26 µM; in the assay on NCI/ADR-RES ovarian, > 100 µM and 323 µM; in the assay on RXF 393 renal, 50.7 µM; in the assay with SK-OV-3 ovarian, 38 µM; with UACC-62 melanoma it was 7.24 µM. Moreover, in the assay on HT29 colon, the GI50 was 23.7 µM. The concentration for total growth inhibition (TGI) in the assay with HCT-116 colon is > 100 µM and > 76.7 µM and 79.8 µM; in the assay with EKVX NSCLC, > 100 µM and 175 µM; with MCF7 breast, > 100 µM and > 88.3 µM and 126 µM; in the assay on NCI/ADR-RES ovarian it was greater than 325 µM; with RXF 393 renal, > 100 µM and 223 µM; with SK-OV-3 ovarian, > 100 µM and 194 µM. The concentration for total growth inhibition (TGI) in the assay with HT29 colon was > 100 µM and > 92.7 µM and 87.6 µM.

As for `CC1CC(C)/C(=N/NC(N)=O)C(C(O)CC2CCC(=O)NC2=O)C1` (centres undefined), the GI50 was 4 µM with NCI-H460 lung; 3.04 µM in the assay on HCT-116 colon; 2.3 µM with EKVX NSCLC; 3.92 µM in the assay on MCF7 breast; 2.85 µM in the assay on SK-MEL-5 melanoma; 3.66 µM in the assay on NCI/ADR-RES ovarian. Further, the GI50 in the assay with RXF 393 renal was 3.21 µM; in the assay on SK-OV-3 ovarian, 4.08 µM; in the assay on UACC-62 melanoma, 2.79 µM; in the assay with HT29 colon, 3.49 µM. For the same compound, the TGI in the assay with NCI-H460 lung is greater than 100 µM; in the assay on HCT-116 colon, greater than 100 µM; in the assay with EKVX NSCLC it was 22.6 µM; in the assay on MCF7 breast it was greater than 100 µM; in the assay on SK-MEL-5 melanoma it was 34.8 µM; in the assay with NCI/ADR-RES ovarian, greater than 100 µM. The TGI was 31.7 µM with RXF 393 renal, greater than 100 µM in the assay on SK-OV-3 ovarian, greater than 100 µM in the assay on UACC-62 melanoma and greater than 100 µM with HT29 colon.

With `O[C@@H]1CCCN1Cc1cc2cc3c(cc2c2cc(OCc4ccccc4)ccc12)OCO3`, the GI50 is 2.6 µM in the assay on NCI-H460 lung; 2.1 µM in the assay with HCT-116 colon; 11.6 µM in the assay on EKVX NSCLC; 2.15 µM with MCF7 breast; 1.78 µM in the assay with SK-MEL-5 melanoma; 6.12 µM with NCI/ADR-RES ovarian. Moreover, the GI50 with RXF 393 renal was 1.53 µM; in the assay with SK-OV-3 ovarian, 12.2 µM; in the assay on UACC-62 melanoma it was 1.97 µM; with HT29 colon it was 1.94 µM. In addition, the concentration for total growth inhibition (TGI) worked out at 7.38 µM with NCI-H460 lung; 5.16 µM in the assay on HCT-116 colon; 27.3 µM with EKVX NSCLC; 5.07 µM in the assay on MCF7 breast; 3.5 µM in the assay on SK-MEL-5 melanoma; 21.7 µM with NCI/ADR-RES ovarian. Also, the total growth inhibition concentration (TGI) in the assay with RXF 393 renal turned out to be 3.85 µM; with SK-OV-3 ovarian, 25.7 µM; in the assay with UACC-62 melanoma, 3.68 µM; in the assay on HT29 colon, 5.09 µM.

Turning to `CC(C)(C)c1cn2cccc(C(=O)N3CCN(CC(=O)Nc4ccc(Cl)cc4C(=O)c4ccccc4Cl)CC3)c2n1`, the GI50 in the assay on NCI-H460 lung is 5.79 µM; in the assay with HCT-116 colon it was 10.3 µM; in the assay on EKVX NSCLC, 5.79 µM; in the assay with MCF7 breast it was 3.94 µM; in the assay on SK-MEL-5 melanoma it was 3.62 µM; with NCI/ADR-RES ovarian, 6.7 µM. Further, the GI50 in the assay with RXF 393 renal was 1.71 µM; with SK-OV-3 ovarian, 27.5 µM; with UACC-62 melanoma, 10.7 µM; with HT29 colon, 3.33 µM. For the same compound, the TGI was 23 µM in the assay with NCI-H460 lung; 25.7 µM in the assay on HCT-116 colon; 66.7 µM with EKVX NSCLC; 20.8 µM with MCF7 breast; 12.7 µM in the assay on SK-MEL-5 melanoma; greater than 100 µM in the assay on NCI/ADR-RES ovarian. In addition, the TGI in the assay on RXF 393 renal was 6.34 µM; in the assay on SK-OV-3 ovarian, greater than 100 µM; in the assay on UACC-62 melanoma, 26 µM; in the assay with HT29 colon it was 12.1 µM.

Regarding `Cc1cc(O)ccc1O`, the GI50 with NCI-H460 lung was 45.4 µM; with HCT-116 colon, 16.9 µM; in the assay on EKVX NSCLC, 36.9 µM; with MCF7 breast it was 19 µM; in the assay with SK-MEL-5 melanoma it was 62 µM; in the assay on NCI/ADR-RES ovarian, 23.5 µM. Further, the GI50 was 15.5 µM in the assay on RXF 393 renal, 72.9 µM in the assay on SK-OV-3 ovarian, 17.9 µM with UACC-62 melanoma and 49.8 µM in the assay with HT29 colon. The TGI in the assay with NCI-H460 lung was greater than 100 µM; in the assay with HCT-116 colon, 32.9 µM; in the assay on EKVX NSCLC, greater than 100 µM; with MCF7 breast it was 69.8 µM; with SK-MEL-5 melanoma, greater than 100 µM; in the assay on NCI/ADR-RES ovarian it was greater than 100 µM. Besides, the total growth inhibition concentration (TGI) was 29.1 µM in the assay on RXF 393 renal, greater than 100 µM in the assay on SK-OV-3 ovarian, 81.3 µM in the assay with UACC-62 melanoma and greater than 100 µM in the assay on HT29 colon.

As for `Cn1c(=O)c2[nH]c(C3CC(=O)CC(c4nc5c([nH]4)c(=O)n(C)c(=O)n5C)N3)nc2n(C)c1=O` (centres undefined), the TGI in the assay with NCI-H460 lung, in the assay with HCT-116 colon, with EKVX NSCLC, with MCF7 breast, with SK-MEL-5 melanoma and in the assay with NCI/ADR-RES ovarian was greater than 100 µM in each case. In addition, the TGI with RXF 393 renal, in the assay on SK-OV-3 ovarian, in the assay on UACC-62 melanoma and in the assay with HT29 colon was greater than 100 µM each time.

The TGI is the concentration giving total growth inhibition. As usually defined, the GI50 is the concentration that inhibits growth by half.
